Reference: PMC10160982 (Proceedings of the National Academy of Sciences of the …, 2023)

Tests used:
[1] = molecular target: PDE4 (catalytic domain of human PDE4D) (Homo sapiens, UniProt Q08499); assay: PDE4 inhibition assay; type: biochemical
[2] = molecular target: SARS-CoV-2 polymerase complex (RdRp; nsp12, nsp7-nsp8) (Severe acute respiratory syndrome coronavirus 2, UniProt P0DTD1); assay: biochemical; settings: RdRp inhibition IC50, in vitro polymerase activity assay
[3] = tested on: SARS-CoV-2-induced IL-1β P17 release in Calu-3 cells; type: cell-based
[4] = tested on: secretion of the matured form of IL-1β (P17) in SFTSV-infected THP-1 macrophages; assay: cells; type: cell-based; settings: for inhibition at 10 µM: Homo sapiens, THP-1, 48 h, read-out: inhibition rate of IL-1β (P17) secretion
[5] = tested on: SARS-CoV-2-trVLPs; type: cell-based, SARS-CoV-2 (Wuhan-Hu-1 strain); settings: ratio of CC50 to antiviral EC50, Caco-2-N cells

Sequence of PDE4 (catalytic domain of human PDE4D) (Q08499 388-715): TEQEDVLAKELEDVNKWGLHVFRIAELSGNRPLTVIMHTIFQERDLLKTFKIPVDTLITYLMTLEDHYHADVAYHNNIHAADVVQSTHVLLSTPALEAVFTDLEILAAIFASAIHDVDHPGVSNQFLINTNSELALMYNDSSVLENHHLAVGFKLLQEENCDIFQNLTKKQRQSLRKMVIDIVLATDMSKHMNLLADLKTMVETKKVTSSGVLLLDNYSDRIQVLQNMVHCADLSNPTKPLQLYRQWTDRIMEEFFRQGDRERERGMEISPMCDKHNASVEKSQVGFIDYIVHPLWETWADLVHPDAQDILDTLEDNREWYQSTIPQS

Compound	IC50 [1] [µM]	IC50 [2] [µM]	reduction of SARS-CoV-2-induced IL-1β P17 release, dose dependence [3]	anti-inflammation activity (inhibition of P17 secretion), dose dependence [4]	inhibition at 10 µM [4] [%]	selectivity index (SI = CC50/EC50) [5]
CC(C)=CCc1cc(-c2coc3cc(O)cc(O)c3c2=O)cc(O)c1O [Glycyrrhisoflavone]	1.29	28.9	dose-dependent effects	dose-dependent manner	> 90	> 5.0
O=c1c(O)c(-c2ccc(O)c(O)c2)oc2cc(O)cc(O)c12 [Quercetin]	17.4	–	–	–	–	> 5.0
Cc1cc(O)c2c(c1)C(=O)c1cc(O)cc(O)c1C2=O [Emodin]	–	–	–	–	–	> 5.0
COc1cc(O)ccc1/C=C/C(=O)c1ccc(O)cc1 [Echinatin]	–	–	dose-dependent effects	dose-dependent manner	> 90	> 5.0
C=CCc1ccc(O)c(-c2cc(CC=C)ccc2O)c1 [Magnolol]	–	–	–	–	–	> 5.0
